Here are results for seven compounds from DBAASP.

What all share (assay): ≥ marks a high value that may be exact or a test limit, other limits are often not marked, values filed in µg/mL are converted to µM
Assay [1] has as its system Candida albicans NCTC 3179.
Assay [2] has as its system Escherichia coli ATCC 25922.
Assay [3] relates to Staphylococcus aureus ATCC 25923.
Assay [4] has as its system Bacillus subtilis ATCC 6633.
Assay [5] deals with Candida albicans ATCC 20032.
Assay [6] concerns Klebsiella pneumoniae ESBL 61962.
Assay [7] concerns Pseudomonas aeruginosa 198.
Assay [8] relates to Enterococcus faecium t62764.
The test system of assay [9] is Enterococcus faecalis f43559.
Assay [10] has as its system Enterococcus faecium mic80.
For assay [11], the system named is Staphylococcus aureus C623.
For assay [12], the system named is Pseudomonas aeruginosa 9.
Assay [13] has as its system Pseudomonas aeruginosa 213.
Assay [14] deals with Stenotrophomonas maltophilia ATCC 13637.
The test system of assay [15] is Pseudomonas aeruginosa LES400.
Assay [16] relates to Klebsiella pneumoniae ESBL 63575.
For assay [17], the system named is Enterococcus faecalis W61950.
The test system of assay [18] is Enterococcus faecalis ATCC 29212.
Assay [19] concerns Pseudomonas aeruginosa PAO1 H103.
Assay [20] concerns Escherichia coli ESBL 64771.
Assay [21] relates to Escherichia coli ESBL 63103.
Assay [22] deals with Pseudomonas aeruginosa H1030.
Assay [23] deals with Pseudomonas aeruginosa H1027.
Assay [24] concerns Enterobacter cloacae 218R.
The subject of assay [25] is Staphylococcus sp. BCRC 10451.
Assay [26] relates to Candida albicans ATCC 90028.
Assay [27] has as its system Staphylococcus aureus.
For assay [28], the system named is Pseudomonas aeruginosa.
Assay [29] concerns Salmonella enterica subsp. enterica serovar Typhi.
Assay [30] relates to Escherichia coli.
Assay [31] concerns Bacillus subtilis.
Assay [32] relates to Pseudomonas aeruginosa ATCC 27853.
In assay [33] the test system is Enterobacter cloacae.

SMILES strings stand for the structures. In brackets after ≈: the same amount, converted by molar mass.

Take `CC[C@H](C)[C@H](NC(=O)[C@H](CCCCN)NC(=O)[C@@H](NC(=O)[C@@H](NC(=O)[C@H](CC(N)=O)NC(=O)[C@H](CCC(=O)O)NC(=O)[C@H](CCC(=O)O)NC(=O)[C@H](CCC(N)=O)NC(=O)[C@@H](N)CCC(=O)O)C(C)C)C(C)C)C(=O)N[C@@H](CCC(N)=O)C(=O)N[C@@H](C)C(=O)N[C@@H](Cc1ccccc1)C(=O)N[C@@H](Cc1c[nH]c2ccccc12)C(=O)N[C@@H](CCCCN)C(=O)NCC(=O)N[C@@H](Cc1ccc(O)cc1)C(=O)N[C@@H](CCCCN)C(=O)N[C@@H](CCC(N)=O)C(=O)N[C@@H](CCCN=C(N)N)C(=O)N[C@@H](CCCCN)C(=O)N[C@@H](CCC(=O)O)C(=O)N[C@@H](Cc1ccc(O)cc1)C(=O)N[C@@H](CCSC)C(=O)O` [EQEENVVKIQAFWKGYKQRKEYM]: the MIC in [1] was 28.3 µM (≈ 83 µg/mL); in [2], 2.15 µM (≈ 6.3 µg/mL); in assay [3] it was 32.1 µM (≈ 94 µg/mL).

Consider `CC[C@H](C)[C@H](NC(=O)CN)C(=O)NCC(=O)NCC(=O)N[C@@H](C)C(=O)N[C@@H](CC(C)C)C(=O)N[C@@H](CC(C)C)C(=O)N[C@@H](CO)C(=O)N[C@@H](C)C(=O)NCC(=O)N[C@@H](CCCCN)C(=O)N[C@@H](C)C(=O)N[C@@H](C)C(=O)N[C@@H](CC(C)C)C(=O)N[C@@H](CCCCN)C(=O)NCC(=O)N[C@@H](CC(C)C)C(=O)N[C@@H](C)C(=O)N[C@@H](CCCCN)C(=O)N[C@H](C(=O)N[C@@H](CC(C)C)C(=O)N[C@H](C(N)=O)C(C)C)C(C)C` [GIGGALLSAGKAALKGLAKVLV], for which the MIC in assay [4] was 4.68 µM (≈ 9.4 µg/mL); in assay [5] it was 9.37 µM (≈ 18.8 µg/mL); in assay [2] it was 18.7 µM (≈ 37.5 µg/mL); in assay [3], 4.68 µM (≈ 9.4 µg/mL).

As for `CC[C@H](C)[C@H](NC(=O)CN)C(=O)NCC(=O)NCC(=O)N[C@@H](C)C(=O)N[C@@H](CC(C)C)C(=O)N[C@@H](CC(C)C)C(=O)N[C@@H](CO)C(=O)N[C@@H](C)C(=O)NCC(=O)N[C@@H](CCCCN)C(=O)N[C@@H](CO)C(=O)N[C@@H](C)C(=O)N[C@@H](CC(C)C)C(=O)N[C@@H](CCCCN)C(=O)NCC(=O)N[C@@H](CC(C)C)C(=O)N[C@@H](C)C(=O)N[C@@H](CCCCN)C(=O)NCC(=O)N[C@@H](CC(C)C)C(=O)N[C@@H](C)C(=O)N[C@@H](CCC(=O)O)C(=O)N[C@@H](Cc1cnc[nH]1)C(=O)N[C@@H](CC(C)C)C(N)=O` [GIGGALLSAGKSALKGLAKGLAEHL], the minimal inhibitory concentration (MIC) was at least 42.9 µM in assay [4], at least 42.9 µM in [5], over 42.9 µM in assay [2] and 8.06 µM (≈ 18.8 µg/mL) in assay [3].

In the case of `CC[C@H](C)[C@H](N)C(=O)N[C@@H](Cc1c[nH]c2ccccc12)C(=O)N[C@@H](Cc1c[nH]c2ccccc12)C(=O)N[C@@H](CCCCN)C(=O)N[C@@H](Cc1c[nH]c2ccccc12)C(=O)N[C@@H](CCCN=C(N)N)C(=O)N[C@@H](CCCN=C(N)N)C(=O)N[C@@H](Cc1c[nH]c2ccccc12)C(=O)N[C@H](C(=O)O)C(C)C` [IWWKWRRWV], the minimal inhibitory concentration (MIC) in assay [6] is at least 48 µM; in assay [7], 6 µM (≈ 8.5 µg/mL); in [8], 1.48 µM (≈ 2.1 µg/mL); in [9], 24 µM (≈ 34 µg/mL); in assay [10], 2.97 µM (≈ 4.2 µg/mL); in assay [11] it was 1.48 µM (≈ 2.1 µg/mL). In addition, the MIC was found to be 24 µM (≈ 34 µg/mL) in [12]; 24 µM (≈ 34 µg/mL) in assay [13]; 0.777 µM (≈ 1.1 µg/mL) in assay [14]; 6 µM (≈ 8.5 µg/mL) in [15]; 6 µM (≈ 8.5 µg/mL) in assay [16]; 24 µM (≈ 34 µg/mL) in [17]. The minimal inhibitory concentration (MIC) in assay [18] came to 12 µM (≈ 17 µg/mL); in assay [19] it was 2.97 µM (≈ 4.2 µg/mL); in assay [20], 2.97 µM (≈ 4.2 µg/mL); in [21], 12 µM (≈ 17 µg/mL); in assay [22], 24 µM (≈ 34 µg/mL); in assay [23], 2.97 µM (≈ 4.2 µg/mL). Also, the MIC in assay [24] worked out at 2.97 µM (≈ 4.2 µg/mL); in assay [3] it was 1.48 µM (≈ 2.1 µg/mL).

On to `CC[C@H](C)[C@H](NC(=O)[C@H](CCCCN)NC(=O)[C@@H]1CCCN1C(C)=O)C(=O)N[C@H](C(=O)N[C@@H](CO)C(=O)N[C@@H](CO)C(=O)N1CCC[C@H]1C(=O)N[C@@H](CC(C)C)C(=O)N[C@@H](Cc1ccccc1)C(=O)N[C@@H](CCCCN)C(=O)N[C@H](C(=O)N[C@@H](CC(C)C)C(=O)N[C@@H](CC(C)C)C(=O)N[C@@H](CO)C(=O)N[C@@H](C)C(=O)N[C@H](C(=O)NCC(=O)N[C@@H](CO)C(=O)N[C@@H](C)C(=O)N[C@@H](CC(C)C)C(=O)N[C@@H](CO)C(=O)N[C@@H](CO)C(=O)N[C@@H](CO)C(=O)NCC(=O)NCC(=O)N[C@@H](CCC(N)=O)C(=O)N[C@@H](CCC(=O)O)C(N)=O)C(C)C)[C@@H](C)O)[C@@H](C)CC` [PKIISSPLFKTLLSAVGSALSSSGGQE], for which, in assay [25], the MIC is at least 37.4 µM.

Consider `CC[C@H](C)[C@H](NC(=O)[C@H](CCCN=C(N)N)NC(=O)[C@H](C)NC(=O)[C@H](CC(C)C)NC(=O)[C@@H](N)CCCN=C(N)N)C(=O)N[C@H](C(=O)N[C@H](C(=O)N[C@H](C(=O)N[C@@H](CCCN=C(N)N)C(=O)N[C@H](C(=O)N[C@@H](C)C(=O)N[C@@H](CCCN=C(N)N)C(=O)O)C(C)C)[C@@H](C)CC)C(C)C)C(C)C` [RLARIVVIRVAR], for which the MIC in assay [6] was at least 95 µM; in assay [7], at least 47.1 µM; in assay [8] it was 1.48 µM (≈ 2.1 µg/mL); in assay [9], 23.9 µM (≈ 34 µg/mL); in [10], 5.91 µM (≈ 8.4 µg/mL); in assay [11], 12 µM (≈ 17 µg/mL). Besides, the MIC in [12] is at least 95 µM; in [13], at least 95 µM; in assay [14], 1.48 µM (≈ 2.1 µg/mL); in assay [15], at least 47.1 µM; in [16], at least 95 µM; in assay [17] it was 23.9 µM (≈ 34 µg/mL). Moreover, the minimum inhibitory concentration (MIC) in assay [18] was 5.91 µM (≈ 8.4 µg/mL); in [19] it was 23.9 µM (≈ 34 µg/mL); in assay [20], 12 µM (≈ 17 µg/mL); in assay [21], 12 µM (≈ 17 µg/mL); in assay [22] it was at least 47.1 µM; in [23], 5.91 µM (≈ 8.4 µg/mL). For the same compound, the MIC in assay [24] and in assay [3] was 12 µM (≈ 17 µg/mL) in each case.

Consider `CC(C)C[C@H](NC(=O)[C@H](CCCCN)NC(=O)[C@H](CCCN=C(N)N)NC(=O)[C@H](Cc1ccccc1)NC(=O)[C@H](Cc1ccccc1)NC(=O)[C@H](CCCCN)NC(=O)[C@H](CCCCN)NC(=O)[C@H](Cc1ccccc1)NC(=O)[C@H](CCCN=C(N)N)NC(=O)[C@H](CCCCN)NC(=O)[C@@H](N)C(C)C)C(=O)N[C@@H](CCCCN)C(=O)N[C@@H](CCCCN)C(=O)N[C@@H](CO)C(N)=O` [VKRFKKFFRKLKKS], for which the MIC was at least 69.6 µM in assay [26]; 69.6 µM (≈ 128 µg/mL) in assay [27]; 17.4 µM (≈ 32 µg/mL) in assay [28]; 17.4 µM (≈ 32 µg/mL) in [29]; 17.4 µM (≈ 32 µg/mL) in assay [30]; at least 34.8 µM in assay [31]. The MIC in assay [32] is 69.6 µM (≈ 128 µg/mL); in [33], at least 139 µM; in assay [2], 69.6 µM (≈ 128 µg/mL); in assay [3], 2.17 µM (≈ 4 µg/mL).
